From patent publication US20260284150A1, “TOPICAL PROTEIN BASED FORMULATION” (OPTIMUS SALVUS LIMITED, priority 2023, published 2026) come the findings set out here.

A short description of data set [1]: CBD dosage optimisation and cell toxicity assay (WST-1). It is filed as cell-based. The following applies: human; HDF cells, 24 hours incubation, WST-1 reagent, CBD up to 25 μg/mL; read-out: CBD concentrations toxic to human fibroblast cells. As for the experimental part:
The following reagents were purchased from ThermoFisher: Human Fibroblast Expansion Basal Medium, Low Serum Growth Supplement (LSGS), EpiLife™ Medium with 60 μM calcium, Human Keratinocyte Growth Supplement (HKGS), Trypsin-EDTA (0.05%), phenol red. Fetal Bovine Serum (French Origin) was purchased from Scientifix. Human skin cells: Fibroblasts (HDF) and Keratinocyte (HEK) cells were purchased from Sigma Aldrich and ThermoFisher respectively. HDF cells were grown in Fibroblast media supplemented with 1×LSGS, while HEK cells were grown in Keratinocyte media supplemented with 1×HKGS. Both cell lines were kept in an incubator at 37° C., with 5% CO2.
The human skin cells (HDF and HEK) were cultured in respective media and were grown in T25 flasks until ~70-80% confluent. Once confluent, the cells were washed with 1×PBS and split using 0.05% Trypsin-EDTA solution. The cell pellet was collected and split into a fresh T25 flask and T75 flask containing full growth media at a dilution factor of 1:4 and incubated at 37° C., 5% CO2. Cells were >85-92% viable based on Trypan blue exclusion when seeding and passing. […]
(In general: Tetrazolium assays rely on reduction of a dye to a coloured formazan, in cell work by metabolically active cells.)

Data set [2] is described as follows: HEDS (2-hydroxyethyl disulphide) enzyme assay, NADPH consumption at A340 nm. It is filed as biochemical. The following applies: coupled with glutathione (GSH) and glutathione reductase (GR); versus buffer control without CLIC. As for the experimental part: The functional activity of the purified CLIC1, CLIC3 and CLIC4 proteins were analysed using the HEDS assay. The assay measures the ability of the CLIC proteins to reduce the HEDS substrate when coupled with glutathione (GSH) and glutathione reductase (GR) resulting in the consumption of NADPH that is monitored at A340 nm.

In the case of `C=C(C)[C@@H]1CCC(C)=C[C@H]1c1c(O)cc(CCCCC)cc1O` [CBD, cannabidiol], the MCC at 24 h in data set [1] was over 4 µg/mL.

Turning to “CLIC4: purified recombinant human chloride intracellular channel protein 4, expressed in E. coli, GST tag cleaved”, in data set [2], the “enzymatic activity: reduction of HEDS substrate, decrease in absorbance at 340 nm (consumption of NADPH)” value is reported as “significant enzymatic activity”.
